{"source": "patent US20060069132A1", "about": "“Azolecarboxamide herbicides” (priority 2004, published 2006)", "key": {"giant foxtail [1]": {"test_system": "giant foxtail", "experiment": "Test A pre-/postemergence herbicide test", "type": "in vivo, Setaria faberi", "details": "for Plant response rating, Foxtail, Giant: Postemergence; for Foxtail, Giant plant response rating: Preemergence", "summary_of_the_method": "(§1)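 Greenhouse injury scoring (0–100, complete control = 100) at approximately ten days follows simultaneous pre- and postemergence application. Soil received a directed spray after seeding; seedlings of 2–10 cm at the one- to two-leaf stage were sprayed to runoff.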"}, "morningglory [2]": {"test_system": "morningglory", "experiment": "Test B pre-/postemergence herbicide test", "type": "in vivo, Ipomoea coccinea", "summary_of_the_method": "(§2)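 Seeds were planted and treated preemergence with compounds formulated in a non-phytotoxic solvent mixture containing surfactant, while plants at the 1- to 4-leaf stage (2 to 18 cm) received postemergence sprays. Flooded paddy plants were grown to the 2-leaf stage. After 13 to 15 days in a greenhouse, injury was visually rated 0–100 against untreated controls.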"}, "large crabgrass [3]": {"test_system": "large crabgrass", "experiment": "Test B pre-/postemergence herbicide test", "type": "in vivo, Digitaria sanguinalis", "summary_of_the_method": "(§3)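 Plants compared with untreated controls 13–15 days post-treatment and given a visual 0–100 injury score. Applications: preemergence to seeds; postemergence at 1- to 4-leaf (2–18 cm); paddy species flooded, 2-leaf stage. Vehicle non-phytotoxic, surfactant included.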"}, "barnyardgrass [4]": {"test_system": "barnyardgrass", "experiment": "Test B pre-/postemergence herbicide test", "type": "in vivo, Echinochloa crus-galli", "summary_of_the_method": "as §2"}, "redroot pigweed": {"test_system": "redroot pigweed", "experiment": "Test A pre-/postemergence herbicide test", "type": "in vivo, Amaranthus retroflexus", "details": "for Plant response rating, Pigweed: Postemergence; for Pigweed plant response rating: Preemergence", "summary_of_the_method": "as §1"}, "pigweed": {"test_system": "pigweed", "experiment": "Test B pre-/postemergence herbicide test", "type": "in vivo, Amaranthus retroflexus", "summary_of_the_method": "as §3"}, "lambsquarters": {"test_system": "lambsquarters", "experiment": "Test B pre-/postemergence herbicide test", "type": "in vivo, Chenopodium album", "summary_of_the_method": "as §3"}, "barnyardgrass [5]": {"test_system": "barnyardgrass", "experiment": "Test A pre-/postemergence herbicide test", "type": "in vivo, Echinochloa crus-galli", "details": "for Plant response rating, Barnyardgrass: Postemergence; for Barnyardgrass plant response rating: Preemergence", "summary_of_the_method": "as §1"}, "Surinam grass": {"test_system": "Surinam grass", "experiment": "Test B pre-/postemergence herbicide test", "type": "in vivo, Urochloa decumbens", "summary_of_the_method": "as §3"}, "morningglory [6]": {"test_system": "morningglory", "experiment": "Test A pre-/postemergence herbicide test", "type": "in vivo, Ipomoea spp.", "details": "for Plant response rating, Morningglory: Postemergence; for Morningglory plant response rating: Preemergence", "summary_of_the_method": "as §1"}, "blackgrass": {"test_system": "blackgrass", "experiment": "Test B postemergence herbicide test", "type": "in vivo, Alopecurus myosuroides", "details": "Postemergence, scale 0 (no effect) to 100 (complete control)", "summary_of_the_method": "(§4)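 Postemergence plants were sprayed with formulated test chemicals at 2 to 18 cm height (1- to 4-leaf stage); paddy species were grown to the 2-leaf stage. After 13 to 15 days in a greenhouse, injury was rated visually against untreated controls on a 0–100 scale (0 = no effect, 100 = complete control).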"}, "ducksalad": {"test_system": "ducksalad", "experiment": "Test B flooded paddy test", "type": "in vivo, Heteranthera limosa", "details": "1000 g ai/ha, visual rating, scale 0 to 100 (0 no effect, 100 complete control), 13 to 15 days", "summary_of_the_method": "as §4"}, "cocklebur": {"test_system": "cocklebur", "experiment": "Test B pre-/postemergence herbicide test", "type": "in vivo, Xanthium strumarium", "summary_of_the_method": "as §2"}, "velvetleaf [7]": {"test_system": "velvetleaf", "experiment": "Test A pre-/postemergence herbicide test", "type": "in vivo, Abutilon theophrasti", "details": "for Plant response rating, Velvetleaf: Postemergence; for Velvetleaf plant response rating: Preemergence", "summary_of_the_method": "as §1"}, "velvetleaf [8]": {"test_system": "velvetleaf", "experiment": "Test B pre-/postemergence herbicide test", "type": "in vivo, Abutilon theophrasti", "summary_of_the_method": "as §3"}, "wild oat": {"test_system": "wild oat", "experiment": "Test B postemergence herbicide test", "type": "in vivo, Avena fatua", "details": "Postemergence, scale 0 (no effect) to 100 (complete control)", "summary_of_the_method": "(§5)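 Greenhouse test; postemergence application to plants at 1–4 leaves (2–18 cm); paddy species at 2 leaves; evaluated visually vs controls at 13–15 days; scale 0–100 (100 = complete control).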"}, "barnyardgrass [9]": {"test_system": "barnyardgrass", "experiment": "Test B flooded paddy test", "type": "in vivo, Echinochloa crus-galli", "details": "1000 g ai/ha, visual rating, scale 0 to 100 (0 no effect, 100 complete control), 13 to 15 days", "summary_of_the_method": "as §4"}, "rice": {"test_system": "rice", "experiment": "Test B flooded paddy test", "type": "in vivo, Oryza sativa", "details": "1000 g ai/ha, visual rating, scale 0 to 100 (0 no effect, 100 complete control), 13 to 15 days", "summary_of_the_method": "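Formulated test chemicals went onto postemergence plants measuring 2 to 18 cm, at one to four leaves. For the paddy assay, species had reached two leaves. Scoring took place 13–15 days later by eye, relative to untreated plants, using 0 for no effect up to 100 for full control.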"}, "[10]": {"test_system": "small flower umbrella sedge", "experiment": "Test B flooded paddy test", "type": "in vivo, Cyperus difformis", "details": "1000 g ai/ha, visual rating, scale 0 to 100 (0 no effect, 100 complete control), 13 to 15 days", "summary_of_the_method": "as §4"}, "giant foxtail [11]": {"test_system": "giant foxtail", "experiment": "Test B pre-/postemergence herbicide test", "type": "in vivo, Setaria faberi", "summary_of_the_method": "as §3"}, "large crabgrass [12]": {"test_system": "large crabgrass", "experiment": "Test A pre-/postemergence herbicide test", "type": "in vivo, Digitaria sanguinalis", "details": "for Plant response rating, Crabgrass, Large: Postemergence; for Crabgrass, Large plant response rating: Preemergence", "summary_of_the_method": "as §1"}, "wheat": {"test_system": "wheat", "experiment": "Test B postemergence herbicide test", "type": "in vivo, Triticum aestivum", "details": "Postemergence, 500 g ai/ha; visual rating after 13 to 15 days, scale 0 (no effect) to 100 (complete control)", "summary_of_the_method": "as §5"}, "corn": {"test_system": "corn", "experiment": "Test B pre-/postemergence herbicide test", "type": "in vivo, Zea mays", "details": "Preemergence, 500 g ai/ha; scale 0 to 100", "summary_of_the_method": "as §3"}, "[13]": {"details": "500 g ai/ha, 0 to 100 scale, 0 no effect, 100 complete control"}, "[14]": {"details": "2000 g ai/ha, 0 to 100 scale, 0 no effect, 100 complete control"}, "[15]": {"details": "500 g ai/ha, visual rating, 0 to 100 scale (0 no effect, 100 complete control)"}, "[16]": {"details": "Preemergence, 500 g ai/ha, scale 0 to 100"}, "[17]": {"details": "preemergence, 125 g ai/ha, 0 to 100 scale, 0 is no effect, 100 is complete control"}, "[18]": {"details": "Postemergence, 125 g ai/ha, scale 0 (no effect) to 100 (complete control)"}, "[19]": {"details": "Postemergence, 500 g ai/ha, visual rating after 13 to 15 days, scale 0 (no effect) to 100 (complete control)"}, "[20]": {"details": "500 g ai/ha, visual rating after 13 to 15 days"}}, "data": [{"smiles": "CCN(CC)C(=O)c1cccc(NC(=O)c2cc(C(C)(C)C)nn2CCF)c1", "note": "[Compound 36]", "values": [{"measurement": "Plant response rating, Foxtail, Giant", "setting": "giant foxtail [1]; [13]", "value": 20}, {"measurement": "Plant response rating, Foxtail, Giant", "setting": "giant foxtail [1]; [14]", "value": 35}, {"measurement": "Foxtail, Giant plant response rating", "setting": "giant foxtail [1]; [15]", "value": 5}, {"measurement": "Foxtail, Giant plant response rating", "setting": "giant foxtail [1]; [14]", "value": 85}, {"measurement": "Morningglory plant response rating", "setting": "morningglory [2]; [16]", "value": 10}, {"measurement": "Plant response rating, Morningglory", "setting": "morningglory [2]; [17]", "value": 10}, {"measurement": "Crabgrass, Large plant response rating", "setting": "large crabgrass [3]; [18]", "value": 20}, {"measurement": "Plant response rating, Crabgrass, Large", "setting": "large crabgrass [3]; [19]", "value": 20}, {"measurement": "Crabgrass, Large plant response rating", "setting": "large crabgrass [3]; [16]", "value": 20}, {"measurement": "Barnyardgrass plant response rating", "setting": "barnyardgrass [4]; [18]", "value": 20}, {"measurement": "Plant response rating, Barnyardgrass", "setting": "barnyardgrass [4]; [19]", "value": 20}, {"measurement": "Barnyardgrass plant response rating", "setting": "barnyardgrass [4]; [16]", "value": 80}, {"measurement": "Plant response rating, Pigweed", "setting": "redroot pigweed; [13]", "value": 80}, {"measurement": "Plant response rating, Pigweed", "setting": "redroot pigweed; [14]", "value": 85}, {"measurement": "Pigweed plant response rating", "setting": "redroot pigweed; [15]", "value": 95}, {"measurement": "Pigweed plant response rating", "setting": "redroot pigweed; [14]", "value": 100}, {"measurement": "Plant response rating, Pigweed", "setting": "pigweed; [19]", "value": 90}, {"measurement": "Pigweed plant response rating", "setting": "pigweed; [16]", "value": 100}, {"measurement": "Plant response rating, Pigweed", "setting": "pigweed; [17]", "value": 90}, {"measurement": "Lambsquarters plant response rating", "setting": "lambsquarters; [18]", "value": 80}, {"measurement": "Plant response rating, Lambsquarters", "setting": "lambsquarters; [19]", "value": 90}, {"measurement": "Lambsquarters plant response rating", "setting": "lambsquarters; [16]", "value": 100}, {"measurement": "Plant response rating, Lambsquarters", "setting": "lambsquarters; [17]", "value": 80}, {"measurement": "Plant response rating, Barnyardgrass", "setting": "barnyardgrass [5]; [13]", "value": 35}, {"measurement": "Plant response rating, Barnyardgrass", "setting": "barnyardgrass [5]; [14]", "value": 80}, {"measurement": "Barnyardgrass plant response rating", "setting": "barnyardgrass [5]; [15]", "value": 45}, {"measurement": "Barnyardgrass plant response rating", "setting": "barnyardgrass [5]; [14]", "value": 75}, {"measurement": "Plant response rating, Surinam Grass", "setting": "Surinam grass; [19]", "value": 10}, {"measurement": "Surinam Grass plant response rating", "setting": "Surinam grass; [16]", "value": 50}, {"measurement": "Plant response rating, Surinam Grass", "setting": "Surinam grass; [17]", "value": 10}, {"measurement": "Plant response rating, Morningglory", "setting": "morningglory [6]; [13]", "value": 10}, {"measurement": "Plant response rating, Morningglory", "setting": "morningglory [6]; [14]", "value": 10}, {"measurement": "Morningglory plant response rating", "setting": "morningglory [6]; [15]", "value": 20}, {"measurement": "Morningglory plant response rating", "setting": "morningglory [6]; [14]", "value": 70}, {"measurement": "Blackgrass plant response rating", "setting": "blackgrass; 125 g ai/ha", "value": 10}, {"measurement": "Plant response rating, Blackgrass", "setting": "blackgrass; [20]", "value": 20}, {"measurement": "Ducksalad plant response rating", "setting": "ducksalad", "value": 90}, {"measurement": "Cocklebur plant response rating", "setting": "cocklebur; [18]", "value": 30}, {"measurement": "Plant response rating, Cocklebur", "setting": "cocklebur; [19]", "value": 50}, {"measurement": "Cocklebur plant response rating", "setting": "cocklebur; [16]", "value": 0}, {"measurement": "Plant response rating, Velvetleaf", "setting": "velvetleaf [7]; [13]", "value": 15}, {"measurement": "Plant response rating, Velvetleaf", "setting": "velvetleaf [7]; [14]", "value": 20}, {"measurement": "Velvetleaf plant response rating", "setting": "velvetleaf [7]; [15]", "value": 20}, {"measurement": "Velvetleaf plant response rating", "setting": "velvetleaf [7]; [14]", "value": 90}, {"measurement": "Plant response rating, Velvetleaf", "setting": "velvetleaf [8]; [19]", "value": 40}, {"measurement": "Velvetleaf plant response rating", "setting": "velvetleaf [8]; [16]", "value": 50}, {"measurement": "Plant response rating, Velvetleaf", "setting": "velvetleaf [8]; [17]", "value": 20}, {"measurement": "Oat, Wild plant response rating", "setting": "wild oat; 125 g ai/ha", "value": 20}, {"measurement": "Plant response rating, Oat, Wild", "setting": "wild oat; [20]", "value": 20}, {"measurement": "Barnyardgrass plant response rating", "setting": "barnyardgrass [9]", "value": 70}, {"measurement": "Rice plant response rating", "setting": "rice", "value": 40}, {"measurement": "Sedge, Umbrella plant response rating", "setting": "[10]", "value": 60}, {"measurement": "Foxtail, Giant plant response rating", "setting": "giant foxtail [11]; [18]", "value": 20}, {"measurement": "Plant response rating, Foxtail, Giant", "setting": "giant foxtail [11]; [19]", "value": 30}, {"measurement": "Foxtail, Giant plant response rating", "setting": "giant foxtail [11]; [16]", "value": 30}, {"measurement": "Plant response rating, Foxtail, Giant", "setting": "giant foxtail [11]; [17]", "value": 0}, {"measurement": "Plant response rating, Crabgrass, Large", "setting": "large crabgrass [12]; [13]", "value": 10}, {"measurement": "Plant response rating, Crabgrass, Large", "setting": "large crabgrass [12]; [14]", "value": 10}, {"measurement": "Crabgrass, Large plant response rating", "setting": "large crabgrass [12]; [15]", "value": 10}, {"measurement": "Crabgrass, Large plant response rating", "setting": "large crabgrass [12]; [14]", "value": 70}, {"measurement": "Plant response rating, Wheat", "setting": "wheat", "value": 30}, {"measurement": "Corn plant response rating", "setting": "corn", "value": 10}]}]}
